From the RepoRT retention time repository
Where a name gives a salt, the structure may show the parent alone.

Assay: RP, Phenomenex Kinetex C18, 100 × 2.1 mm, 1.7 µm, 40 °C, 0.5 mL/min, estimated dead time 0.44 min; A: water + 1 mM ammonium fluoride; B: acetonitrile; gradient (min/%B) 0/10 2/10 22/100 27/100 27.1/10
Details: stereoisomer not certain

Row | Structure (SMILES) | LC retention time [min]
1 | C[C@H](CCC(=O)O)[C@H]1CC[C@H]2[C@@H]3CC[C@@H]4CC(=O)CC[C@]4(C)[C@H]3CC[C@]12C [3-Oxo-5beta-cholanoic Acid] | 13.4
2 | CC(CCCC(C)C1CCC2C3C(O)CC4=CC(=O)CCC4(C)C3CCC12C)C(=O)O (configuration not stated) [7-Hydroxy-3-oxo-Cholest-4-en-26-oic Acid] | 12
3 | CC(CCC(=O)O)C1CCC2C3C(O)CC4CC(O)CCC4(C)C3CC(=O)C12C (configuration not stated) [12-Ketochenodeoxycholic acid] | 7.88
4 | CC(CCCC(C)C1CCC2C3CCC4=CC(=O)C=CC4(C)C3CCC12C)C(=O)O [(25S)-d1,4-Dafachronic acid] | 14.5
5 | CC(CCCC(C)C1CCC2C3=CCC4CC(=O)C=CC4(C)C3CCC21C)C(=O)O [(25S)-d1,7-Dafachronic acid] | 14.4
6 | CC(CCCC(C)C1CCC2C3CCC4CC(=O)C=CC4(C)C3CCC12C)C(=O)O [(25S)-d1-Dafachronic acid] | 15.9
7 | CC(CCCC(C)C1CCC2=C3C=CC4=CC(=O)CCC4(C)C3CCC21C)C(=O)O [(25S)-d4,6,8(14)-Dafachronic acid] | 14.3
8 | CC(CCCC(C)C1CCC2=C3CCC4CC(=O)CCC4(C)C3CCC21C)C(=O)O [(25S)-d8(14)-Dafachronic acid] | 15.9
9 | CCCCCCCCCCCCCCCCCCCC(=O)O [Arachidic acid] | 20.3
10 | CCCCCCCCCC(=O)O [Decanoic acid] | 10.3
11 | CC(CCC(=O)O)C1CCC2C3C(=O)CC4CC(=O)CCC4(C)C3CC(=O)C12C (configuration not stated) [Dehydrocholic acid] | 7.14
12 | CC(CCC(=O)NCC(=O)O)C1CCC2C3C(O)CC4CC(O)CCC4(C)C3CC(O)C12C (configuration not stated) [Glycocholic acid] | 6.87
13 | CC(CCC(=O)NCC(=O)O)C1CCC2C3C(=O)CC4CC(=O)CCC4(C)C3CC(=O)C12C (configuration not stated) [Glycodehydrocholic acid] | 5.21
14 | CC(CCC(=O)NCC(=O)O)C1CCC2C3CCC4CC(O)CCC4(C)C3CC(O)C12C (configuration not stated) [Glycodeoxycholic acid] | 7.98

Further lines, results first:

Row | LC retention time [min] | Structure (SMILES)
15 | 6.88 | CC(CCC(=O)NCC(=O)O)C1CCC2C3CC(O)C4CC(O)CCC4(C)C3CCC12C (configuration not stated) [Glycohyodeoxycholic Acid]
16 | 9.22 | CC(CCC(=O)NCC(=O)O)C1CCC2C3CCC4CC(O)CCC4(C)C3CCC12C (configuration not stated) [Glycolithocholic Acid sodium salt]
17 | 13.1 | CC(CCC(=O)O)C1CCC2C3CCC4CC(O)CCC4(C)C3CCC12C (configuration not stated) [Lithocholic acid]
18 | 9.58 | CC(CC(=O)O)C1CCC2C3CCC4CC(O)CCC4(C)C3CC(O)C12C (configuration not stated) [Nor-Desoxycholic Acid]
19 | 9.67 | CC(CCC(=O)O)C1CCC2C3C(=O)CC4CC(O)CCC4(C)C3CCC12C (configuration not stated) [Nutriacholic Acid]
20 | 6.97 | CC(CCC(=O)NCCS(=O)(=O)O)C1CCC2C3C(O)CC4CC(O)CCC4(C)C3CC(O)C12C (configuration not stated) [Taurocholic acid]
21 | 8.04 | CC(CCC(=O)NCCS(=O)(=O)O)C1CCC2C3CCC4CC(O)CCC4(C)C3CC(O)C12C (configuration not stated) [Taurodeoxycholic acid]
22 | 9.12 | CC(CCC(=O)NCCS(=O)(=O)O)C1CCC2C3CCC4CC(O)CCC4(C)C3CCC12C (configuration not stated) [Taurolithocholic acid]
